Conditions: human gut metagenome, 24 h, 2 µM
Further: call rule not given here.

Bacterial Biotransformation	Compound
Compound metabolized	OC(c1cc(C(F)(F)F)nc2c(C(F)(F)F)cccc12)C1CCCCN1 (stereo not given) [MEFLOQUINE]
Compound metabolized	CC(=O)O[C@]1(C(C)=O)CC[C@H]2[C@@H]3C=C(C)C4=CC(=O)CC[C@]4(C)[C@H]3CC[C@@]21C [MEGESTROL ACETATE]

Assay: (§1) The drug is tested on Z-009 corresponding to pig gut metagenome with ENA study accession number: PRJEB37062 and ENA sample accession number: ERS12561809 for biotransformation under anaerobic condition. The drug concentrations were measured over 9 timepoints collected between 0 and 24 hours of incubation by liquid-chromatography-coupled mass spectrometry (LC–MS)
Conditions: 2 µM

Bacterial Biotransformation	Compound
Compound metabolized	OC(c1cc(C(F)(F)F)nc2c(C(F)(F)F)cccc12)C1CCCCN1 (stereo not given) [MEFLOQUINE]
Compound metabolized	CC(=O)O[C@]1(C(C)=O)CC[C@H]2[C@@H]3C=C(C)C4=CC(=O)CC[C@]4(C)[C@H]3CC[C@@]21C [MEGESTROL ACETATE]

Conditions: human gut metagenome, 24 h, 2 µM
Remark: another data set of the same source

Bacterial Biotransformation	Compound
Compound metabolized	OC(c1cc(C(F)(F)F)nc2c(C(F)(F)F)cccc12)C1CCCCN1 (stereo not given) [MEFLOQUINE]
Compound metabolized	CC(=O)O[C@]1(C(C)=O)CC[C@H]2[C@@H]3C=C(C)C4=CC(=O)CC[C@]4(C)[C@H]3CC[C@@]21C [MEGESTROL ACETATE]

Conditions: human gut metagenome, 24 h, 2 µM
Remark: another data set of the same source

Bacterial Biotransformation	Compound
Compound metabolized	OC(c1cc(C(F)(F)F)nc2c(C(F)(F)F)cccc12)C1CCCCN1 (stereo not given) [MEFLOQUINE]
Compound metabolized	CC(=O)O[C@]1(C(C)=O)CC[C@H]2[C@@H]3C=C(C)C4=CC(=O)CC[C@]4(C)[C@H]3CC[C@@]21C [MEGESTROL ACETATE]

Conditions: human gut metagenome, 24 h, 2 µM
Remark: another data set of the same source

Bacterial Biotransformation	Compound
Compound NOT metabolized	OC(c1cc(C(F)(F)F)nc2c(C(F)(F)F)cccc12)C1CCCCN1 (stereo not given) [MEFLOQUINE]
Compound metabolized	CC(=O)O[C@]1(C(C)=O)CC[C@H]2[C@@H]3C=C(C)C4=CC(=O)CC[C@]4(C)[C@H]3CC[C@@]21C [MEGESTROL ACETATE]

Conditions: human gut metagenome, 24 h, 2 µM
Remark: another data set of the same source

Bacterial Biotransformation	Compound
Compound metabolized	OC(c1cc(C(F)(F)F)nc2c(C(F)(F)F)cccc12)C1CCCCN1 (stereo not given) [MEFLOQUINE]
Compound metabolized	CC(=O)O[C@]1(C(C)=O)CC[C@H]2[C@@H]3C=C(C)C4=CC(=O)CC[C@]4(C)[C@H]3CC[C@@]21C [MEGESTROL ACETATE]

Assay: as §1, with “WLS-073” for “Z-009”, “human” for “pig”, “ERS12561749” for “ERS12561809”
Conditions: 2 µM

Bacterial Biotransformation	Compound
Compound metabolized	OC(c1cc(C(F)(F)F)nc2c(C(F)(F)F)cccc12)C1CCCCN1 (stereo not given) [MEFLOQUINE]
Compound metabolized	CC(=O)O[C@]1(C(C)=O)CC[C@H]2[C@@H]3C=C(C)C4=CC(=O)CC[C@]4(C)[C@H]3CC[C@@]21C [MEGESTROL ACETATE]

Conditions: human gut metagenome, 24 h, 2 µM
Remark: another data set of the same source

Bacterial Biotransformation	Compound
Compound NOT metabolized	OC(c1cc(C(F)(F)F)nc2c(C(F)(F)F)cccc12)C1CCCCN1 (stereo not given) [MEFLOQUINE]
Compound metabolized	CC(=O)O[C@]1(C(C)=O)CC[C@H]2[C@@H]3C=C(C)C4=CC(=O)CC[C@]4(C)[C@H]3CC[C@@]21C [MEGESTROL ACETATE]

Assay: as §1, with “Z-022” for “Z-009”, “mouse” for “pig”, “ERS12561821” for “ERS12561809”
Conditions: 2 µM

Bacterial Biotransformation	Compound
Compound metabolized	OC(c1cc(C(F)(F)F)nc2c(C(F)(F)F)cccc12)C1CCCCN1 (stereo not given) [MEFLOQUINE]
Compound NOT metabolized	CC(=O)O[C@]1(C(C)=O)CC[C@H]2[C@@H]3C=C(C)C4=CC(=O)CC[C@]4(C)[C@H]3CC[C@@]21C [MEGESTROL ACETATE]

Assay: as §1, with “Z-006” for “Z-009”, “mouse” for “pig”, “ERS12561806” for “ERS12561809”
Conditions: 2 µM

Bacterial Biotransformation	Compound
Compound NOT metabolized	OC(c1cc(C(F)(F)F)nc2c(C(F)(F)F)cccc12)C1CCCCN1 (stereo not given) [MEFLOQUINE]
Compound metabolized	CC(=O)O[C@]1(C(C)=O)CC[C@H]2[C@@H]3C=C(C)C4=CC(=O)CC[C@]4(C)[C@H]3CC[C@@]21C [MEGESTROL ACETATE]

Assay: as §1, with “Z-023” for “Z-009”, “to” for “to pig gut”, “ERS12561822” for “ERS12561809”
Conditions: 2 µM

Bacterial Biotransformation	Compound
Compound metabolized	OC(c1cc(C(F)(F)F)nc2c(C(F)(F)F)cccc12)C1CCCCN1 (stereo not given) [MEFLOQUINE]
Compound NOT metabolized	CC(=O)O[C@]1(C(C)=O)CC[C@H]2[C@@H]3C=C(C)C4=CC(=O)CC[C@]4(C)[C@H]3CC[C@@]21C [MEGESTROL ACETATE]

Assay: as §1, with “WLS-350” for “Z-009”, “human” for “pig”, “ERS12561789” for “ERS12561809”
Conditions: 2 µM

Bacterial Biotransformation	Compound
Compound NOT metabolized	OC(c1cc(C(F)(F)F)nc2c(C(F)(F)F)cccc12)C1CCCCN1 (stereo not given) [MEFLOQUINE]
Compound metabolized	CC(=O)O[C@]1(C(C)=O)CC[C@H]2[C@@H]3C=C(C)C4=CC(=O)CC[C@]4(C)[C@H]3CC[C@@]21C [MEGESTROL ACETATE]

Assay: as §1, with “Z-004” for “Z-009”, “to” for “to pig gut”, “ERS12561804” for “ERS12561809”
Conditions: 2 µM

Bacterial Biotransformation	Compound
Compound NOT metabolized	OC(c1cc(C(F)(F)F)nc2c(C(F)(F)F)cccc12)C1CCCCN1 (stereo not given) [MEFLOQUINE]
Compound metabolized	CC(=O)O[C@]1(C(C)=O)CC[C@H]2[C@@H]3C=C(C)C4=CC(=O)CC[C@]4(C)[C@H]3CC[C@@]21C [MEGESTROL ACETATE]

Assay: as §1, with “Z-013” for “Z-009”, “rabbit” for “pig”, “ERS12561813” for “ERS12561809”
Conditions: 2 µM

Bacterial Biotransformation	Compound
Compound NOT metabolized	OC(c1cc(C(F)(F)F)nc2c(C(F)(F)F)cccc12)C1CCCCN1 (stereo not given) [MEFLOQUINE]
Compound metabolized	CC(=O)O[C@]1(C(C)=O)CC[C@H]2[C@@H]3C=C(C)C4=CC(=O)CC[C@]4(C)[C@H]3CC[C@@]21C [MEGESTROL ACETATE]

Conditions: human gut metagenome, 24 h, 2 µM
Remark: another data set of the same source

Bacterial Biotransformation	Compound
Compound NOT metabolized	OC(c1cc(C(F)(F)F)nc2c(C(F)(F)F)cccc12)C1CCCCN1 (stereo not given) [MEFLOQUINE]
Compound metabolized	CC(=O)O[C@]1(C(C)=O)CC[C@H]2[C@@H]3C=C(C)C4=CC(=O)CC[C@]4(C)[C@H]3CC[C@@]21C [MEGESTROL ACETATE]

Assay: as §1, with “WLS-010” for “Z-009”, “human” for “pig”, “ERS12561743” for “ERS12561809”
Conditions: 2 µM

Bacterial Biotransformation	Compound
Compound metabolized	OC(c1cc(C(F)(F)F)nc2c(C(F)(F)F)cccc12)C1CCCCN1 (stereo not given) [MEFLOQUINE]
Compound metabolized	CC(=O)O[C@]1(C(C)=O)CC[C@H]2[C@@H]3C=C(C)C4=CC(=O)CC[C@]4(C)[C@H]3CC[C@@]21C [MEGESTROL ACETATE]

Conditions: human gut metagenome, 24 h, 2 µM
Remark: another data set of the same source

Bacterial Biotransformation	Compound
Compound metabolized	OC(c1cc(C(F)(F)F)nc2c(C(F)(F)F)cccc12)C1CCCCN1 (stereo not given) [MEFLOQUINE]
Compound NOT metabolized	CC(=O)O[C@]1(C(C)=O)CC[C@H]2[C@@H]3C=C(C)C4=CC(=O)CC[C@]4(C)[C@H]3CC[C@@]21C [MEGESTROL ACETATE]

Assay: as §1, with “WLS-052” for “Z-009”, “human” for “pig”, “ERS12561747” for “ERS12561809”
Conditions: 2 µM

Bacterial Biotransformation	Compound
Compound metabolized	OC(c1cc(C(F)(F)F)nc2c(C(F)(F)F)cccc12)C1CCCCN1 (stereo not given) [MEFLOQUINE]
Compound metabolized	CC(=O)O[C@]1(C(C)=O)CC[C@H]2[C@@H]3C=C(C)C4=CC(=O)CC[C@]4(C)[C@H]3CC[C@@]21C [MEGESTROL ACETATE]

Assay: as §1, with “Z-025” for “Z-009”, “rabbit” for “pig”, “ERS12561824” for “ERS12561809”
Conditions: 2 µM

Bacterial Biotransformation	Compound
Compound NOT metabolized	OC(c1cc(C(F)(F)F)nc2c(C(F)(F)F)cccc12)C1CCCCN1 (stereo not given) [MEFLOQUINE]
Compound metabolized	CC(=O)O[C@]1(C(C)=O)CC[C@H]2[C@@H]3C=C(C)C4=CC(=O)CC[C@]4(C)[C@H]3CC[C@@]21C [MEGESTROL ACETATE]

Assay: as §1, with “Z-007” for “Z-009”, “rat” for “pig”, “ERS12561807” for “ERS12561809”
Conditions: 2 µM

Bacterial Biotransformation	Compound
Compound NOT metabolized	OC(c1cc(C(F)(F)F)nc2c(C(F)(F)F)cccc12)C1CCCCN1 (stereo not given) [MEFLOQUINE]
Compound metabolized	CC(=O)O[C@]1(C(C)=O)CC[C@H]2[C@@H]3C=C(C)C4=CC(=O)CC[C@]4(C)[C@H]3CC[C@@]21C [MEGESTROL ACETATE]

— ChEMBL document CHEMBL5724914, “Linking interpersonal differences in gut microbiota composition and drug biotransformation activity” (2024)
